Source: the NIST ThermoML archive (doi:10.1021/je4009238)

How the values were obtained:
[1] = refractive index (Na D-line) (dimensionless); conditions: 101.33 kPa, Liquid
[2] = 101 kPa, Liquid
[3] = xn = mol fraction of the nth substance listed; conditions: 101 kPa, Liquid
[4] = refractive index (Na D-line) (dimensionless); xn = mol fraction of the nth substance listed; conditions: 101 kPa, Liquid

CN(C)C=O [dimethylformamide]
Conditions	mass density, [2] [kg/m3]	refractive index, [1]	viscosity, [2] [mPa·s]
288.15 K	953.79	1.43304	0.936
298.15 K	944.26	1.42858	0.825
308.15 K	934.69	1.42381	0.736
318.15 K	925.16	1.41909	0.665

CN(C)C=O [dimethylformamide] + CCCCn1cc[n+](C)c1.[Cl-]
x2 = 0
Conditions	mass density, [3] [kg/m3]	refractive index, [4]	viscosity, [3] [mPa·s]
288.15 K	953.79	1.43304	0.936
298.15 K	944.26	1.42858	0.825
308.15 K	934.69	1.42381	0.736
318.15 K	925.16	1.41909	0.665

CCCCCCn1cc[n+](C)c1.[Cl-] [1-hexyl-3-methylimidazolium chloride] + CN(C)C=O
Conditions	mass density, [3] [kg/m3]	refractive index, [4]	viscosity, [3] [mPa·s]
288.15 K, x1 = 0.0312	964.44	1.44088	1.271
288.15 K, x1 = 0.0646	973.48	1.44818	1.715
288.15 K, x1 = 0.102	982	1.45488	2.392
288.15 K, x1 = 0.1456	990.33	1.46175	4.166
288.15 K, x1 = 0.196	998.49	1.46836	6.28
288.15 K, x1 = 0.2502	1005.77	1.47473	10.77
288.15 K, x1 = 0.3144	1013.08	1.4808	17.98
288.15 K, x1 = 0.3893	1020.04	1.48693	32.59
288.15 K, x1 = 0.4796	1026.84	1.49278	65.31
288.15 K, x1 = 0.591	1033.55	1.49886	134.94
288.15 K, x1 = 0.7249	1039.53	1.50429	232.47
288.15 K, x1 = 1	1047.99	1.5125	–
298.15 K, x1 = 0.0312	955.32	1.43634	1.097
298.15 K, x1 = 0.0646	964.62	1.44359	1.451
298.15 K, x1 = 0.102	973.43	1.45059	2.064
298.15 K, x1 = 0.1456	982.06	1.45751	2.874
298.15 K, x1 = 0.196	990.57	1.46433	4.815
298.15 K, x1 = 0.2502	998.08	1.47086	7.927
298.15 K, x1 = 0.3144	1005.74	1.47702	12.52
298.15 K, x1 = 0.3893	1012.97	1.48213	21.49
298.15 K, x1 = 0.4796	1019.96	1.48933	40.25
298.15 K, x1 = 0.591	1026.93	1.49567	76.98
298.15 K, x1 = 0.7249	1033.24	1.50108	178.3
298.15 K, x1 = 1	1042.2	1.50953	–
308.15 K, x1 = 0.0312	946.13	1.43187	0.961
308.15 K, x1 = 0.0646	955.75	1.43909	1.249
308.15 K, x1 = 0.102	964.86	1.44632	1.733
308.15 K, x1 = 0.1456	973.81	1.4533	2.348
308.15 K, x1 = 0.196	982.59	1.46038	3.817
308.15 K, x1 = 0.2502	990.42	1.46695	6.056
308.15 K, x1 = 0.3144	998.35	1.47335	9.115
308.15 K, x1 = 0.3893	1005.87	1.47856	15.08
308.15 K, x1 = 0.4796	1013.14	1.48595	26.46
308.15 K, x1 = 0.591	1020.36	1.49237	47.62
308.15 K, x1 = 0.7249	1026.94	1.49797	75.17
308.15 K, x1 = 1	1036.43	1.50667	2044.2
318.15 K, x1 = 0.0312	936.91	1.42765	0.852
318.15 K, x1 = 0.0646	946.92	1.43468	1.091
318.15 K, x1 = 0.102	956.28	1.44219	1.489
318.15 K, x1 = 0.1456	965.63	1.44909	1.957
318.15 K, x1 = 0.196	974.62	1.45652	3.113
318.15 K, x1 = 0.2502	982.82	1.46293	4.77
318.15 K, x1 = 0.3144	990.96	1.46974	6.88
318.15 K, x1 = 0.3893	998.8	1.47497	10.95
318.15 K, x1 = 0.4796	1006.38	1.48264	18.37
318.15 K, x1 = 0.591	1013.87	1.48916	31.33
318.15 K, x1 = 0.7249	1020.7	1.49498	47.69
318.15 K, x1 = 1	1030.62	1.5039	884.2

CN(C)C=O [dimethylformamide] + CCCCCCCC[n+]1ccn(C)c1.[Cl-]
x2 = 0
Conditions	mass density, [3] [kg/m3]	refractive index, [4]	viscosity, [3] [mPa·s]
288.15 K	953.79	1.43304	0.936
298.15 K	944.26	1.42858	0.825
308.15 K	934.69	1.42381	0.736
318.15 K	925.16	1.41909	0.665
